Source: patent publication US20250206773A1, “FORMS AND COMPOSITIONS OF SODIUM CHENODEOXYCHOLATE” (Syntis Bio, Inc., priority 2022, published 2025)
Like-named read-outs stand apart in the source and are kept apart here.

Assays:
[1] = format: physicochemical
Method: HPLC analysis was carried out on an Agilent 1260 Infinity chromatograph, using a Hichrom C18 column 100×4.6 mm, 3.5 m, at 40° C. Method details were as follows:
Around 10 mg of NaCDC Form B was weighed into clear HPLC vials and the selected solvents (500 μL) were added to the vials. Experiments ST07, 09, 11, 13, 15, 17, 19 and 21 were kept stirring for 24 h at 30° C. and 60° C., while samples were taken after 4 h and 24 h for HPLC analysis. Subsequently, the same experiments were evaporated at 30° C. for 24 h under reduced pressure (21-22 mbar), and the solids were evaluated by HPLC and XRPD. Separately, the solutions and slurries from experiments ST10, 12, 14, 16, 18, 20 and 22 were stirred for 24 h at 30° C. and 60° C. (no samples were taken) and evaporated at 60° C. for 24 h under reduced pressure (20-21 mbar). The recovered materials were sampled for HPLC and XRPD analyses.

[2] = Polymorph screening: slurry with sonication; format: physicochemical; conditions: sonicated 15 minutes then 5° C. for 30 minutes, 6 cycles
Method: Around 15 mg of NaCDC Form B was weighed into HPLC vials and 0.4 mL of corresponding solvents were added at RT. The slurries were sonicated for 15 minutes and then left to cool at 5° C. for 30 minutes—this cycle was repeated 6 times. At the end of the sixth cycle, all experiments were air-dried on filter paper and the recovered solids were analyzed by XRPD. Based on the XRPD data, some experiments were analyzed by HPLC.

[3] = Intrinsic dissolution, USP rotating disk apparatus; format: physicochemical
Method: For the intrinsic dissolution studies, the following HPLC method was used: [table] Intrinsic dissolution profiles of NaCDC Form A and Form B were determined from a drug disk of constant surface area using a USP rotating disk apparatus in phosphate buffer (pH 7.4) at 37° C. […] A typical apparatus consisted of a punch and a die, whose base is attached to a surface plate. […] The punch was then inserted in the die cavity and the test material was compressed with a hydraulic press. A non-disintegrating compact of the material was formed in the die cavity with a single face of defined area exposed on the bottom of the die. The die assembly was then attached to a shaft with a holder and the surface plate was removed. The shaft holding the die assembly was positioned into the dissolution medium at a distance not less than 1.0 cm from the bottom of the vessel. In this procedure, fluid flow was generated by the rotation of the die. The amount of material dissolved was measured as a function of time. In particular, the cumulative amount dissolved at each time point was corrected for losses due to sampling. […] Method parameters are summarized below: [table]

[4] = Polymorph screening: slow evaporation; format: physicochemical
Method: Five stock solutions (with MeOH, water, 2,2,2-trifluoroethanol, MeOH:EtOAc (1:1 v/v) and MeOH:acetone (1:1 v/v)) were prepared with NaCDC Form B at RT. The final concentration of each solution was near that obtained from the Solubility Studies described in Example 8. Around 19-23 mg of NaCDC Form B was weighed into 1.6 mL HPLC vials (or 8 mL flask in the case of stock solutions with MeOH:EtOAc and MeOH:acetone) and dissolved in appropriate solvents at RT. In the case of the stock solution with water, around 40 mg NaCDC Form B was used. The experiments were kept at RT for 1 h with stirring (500 rpm) and then the solutions were filtered with 0.45 μm PTFE filters. During filtration of the stock solution with water, a foaming phenomenon was observed, and therefore, filtration was performed slowly and in several steps. The filtered solutions were then evaporated slowly under atmospheric pressure at 25° C. (experiments EV01-05) or at 50° C. (experiments EV06-09). After complete evaporation of the solvent, the solids were recovered and analyzed by XRPD. Depending on the results obtained from the XRPD analysis and also material availability, some experiments were analyzed by HPLC and TG/DSC.

[5] = ST13: Methanol, solution, 60° C.
[6] = ST17: n-Heptane, slurry, 60° C.
[7] = EV07, 2,2,2-Trifluoroethanol (TFE) 50.88 mg/mL, solids after 4 days at 50° C. and atm. pres.

HPLC purities throughout the stability tests [1]: ≥ 86.1% | form stability in slurry experiments (XRPD) [1]: stable | stability in solution and/or slurry [1]: remained stable | HPLC (%) at 212 nm (after evap.) ([1]; ST07: Water solution RT 24 h, evaporated at 30° C. 24 h): 97.8% | XRPD (after evap.) ([1]; ST07: Water solution RT, evaporated at 30° C.): Am. | HPLC (%) at 212 nm (before evap.) 4 h ([1]; ST07: Water, solution, RT): 100.0% | HPLC (%) at 212 nm (before evap.) 24 h ([1]; ST07: Water, solution, RT): 96.2% | HPLC (%) at 212 nm (after evap.) ([1]; ST08: Water solution RT 24 h, evaporated at 60° C. 24 h, listed as NaCDC Form B): 84.6% | HPLC (%) at 212 nm (after evap.) ([1]; ST08: Water solution RT 24 h, evaporated at 60° C. 24 h, listed as starting material): around 84.5% | XRPD (after evap.) ([1]; ST08: Water solution RT, evaporated at 60° C.): Am. | HPLC (%) at 212 nm (after evap.) ([1]; ST09: Water solution 60° C. 24 h, evaporated at 30° C. 24 h): 95.7% | XRPD (after evap.) ([1]; ST09: Water solution 60° C., evaporated at 30° C.): Am. | HPLC (%) at 212 nm (before evap.) 4 h ([1]; ST09: Water, solution, 60° C.): 100.0% | HPLC (%) at 212 nm (before evap.) 24 h ([1]; ST09: Water, solution, 60° C.): 96.6% | HPLC (%) at 212 nm (after evap.) ([1]; ST10: Water solution 60° C. 24 h, evaporated at 60° C. 24 h): 90.0% | XRPD (after evap.) ([1]; ST10: Water solution 60° C., evaporated at 60° C.): Am. | HPLC (%) at 212 nm (after evap.) ([1]; ST11: Methanol solution RT 24 h, evaporated at 30° C. 24 h): 87.1% | XRPD (after evap.) ([1]; ST11: Methanol solution RT, evaporated at 30° C.): Am. | HPLC (%) at 212 nm (before evap.) 4 h ([1]; ST11: Methanol, solution, RT): 91.4% | HPLC (%) at 212 nm (before evap.) 24 h ([1]; ST11: Methanol, solution, RT): 93.5% | HPLC (%) at 212 nm (after evap.) ([1]; ST12: Methanol solution RT 24 h, evaporated at 60° C. 24 h): 90.5% | XRPD (after evap.) ([1]; ST12: Methanol solution RT, evaporated at 60° C.): Am. | HPLC (%) at 212 nm (after evap.) ([1]; ST13: Methanol solution 60° C. 24 h, evaporated at 30° C. 24 h): no peak~ | XRPD (after evap.) ([1]; ST13: Methanol solution 60° C., evaporated at 30° C.): Am. | HPLC (%) at 212 nm (before evap.) 4 h [1, 5]: 94.8% | HPLC (%) at 212 nm (before evap.) 24 h [1, 5]: 90.3% | HPLC (%) at 212 nm (after evap.) ([1]; ST14: Methanol solution 60° C. 24 h, evaporated at 60° C. 24 h): 92.5% | XRPD (after evap.) ([1]; ST14: Methanol solution 60° C., evaporated at 60° C.): Am. | HPLC (%) at 212 nm (after evap.) ([1]; ST15: n-Heptane slurry RT 24 h, evaporated at 30° C. 24 h): no peak~ | HPLC (%) at 212 nm (before evap.) 4 h ([1]; ST15: n-Heptane, slurry, RT): 89.9% | HPLC (%) at 212 nm (before evap.) 24 h ([1]; ST15: n-Heptane, slurry, RT): 100.0% | HPLC (%) at 212 nm (after evap.) ([1]; ST16: n-Heptane slurry RT 24 h, evaporated at 60° C. 24 h, listed as NaCDC Form B): 84.5% | HPLC (%) at 212 nm (after evap.) ([1]; ST16: n-Heptane slurry RT 24 h, evaporated at 60° C. 24 h, listed as starting material): around 84.5% | HPLC (%) at 212 nm (after evap.) ([1]; ST17: n-Heptane slurry 60° C. 24 h, evaporated at 30° C. 24 h): 93.6% | HPLC (%) at 212 nm (before evap.) 4 h [1, 6]: 91.5% | HPLC (%) at 212 nm (before evap.) 24 h [1, 6]: 91.4% | HPLC (%) at 212 nm (after evap.) ([1]; ST18: n-Heptane slurry 60° C. 24 h, evaporated at 60° C. 24 h): 90.4% | HPLC (%) at 212 nm (after evap.) ([1]; ST19: MEK slurry RT 24 h, evaporated at 30° C. 24 h): 74.1% | HPLC (%) at 212 nm (before evap.) 4 h ([1]; ST19: MEK, slurry, RT): 100.0% | HPLC (%) at 212 nm (before evap.) 24 h ([1]; ST19: MEK, slurry, RT): 97.7% | HPLC (%) at 212 nm (after evap.) ([1]; ST20: MEK slurry RT 24 h, evaporated at 60° C. 24 h): 86.1% | HPLC (%) at 212 nm (after evap.) ([1]; ST21: MEK slurry 60° C. 24 h, evaporated at 30° C. 24 h): 55.9% | HPLC (%) at 212 nm (before evap.) 4 h ([1]; ST21: MEK, slurry, 60° C.): 65.2% | HPLC (%) at 212 nm (before evap.) 24 h ([1]; ST21: MEK, slurry, 60° C.): 94.5% | HPLC (%) at 212 nm (after evap.) ([1]; ST22: MEK slurry 60° C. 24 h, evaporated at 60° C. 24 h): 86.6% | HPLC purity (%) at 212 nm ([2]; SLS03, Ethyl acetate (EtOAc)): 90.42% | HPLC purity (%) at 212 nm ([2]; SLS08, EtOH:MeCN (1:1 v/v)): 79.23% | HPLC purity (%) at 212 nm ([2]; SLS09, EtOH:n-Heptane (1:1 v/v)): 89.68% | solid form after compression (XRPD) ([3]; 2 tons for 2 minutes): no change in solid form | IDR (intrinsic dissolution rate) ([3]; USP phosphate buffer pH 7.4, 37° C., 100 rpm, disk 0.5024 cm^2): 0.9218 mg · min^−1 · cm^−2 | HPLC purity (%) at 212 nm ([4]; EV01, Methanol (MeOH) 100.80 mg/mL, solids after 4 days at 25-30° C. and atm. pres.): 91.70% | HPLC purity (%) at 212 nm ([4]; EV02, Water (H2O) 204.39 mg/mL, solids after 5 days at 25-30° C. and atm. pres.): 93.71% | HPLC purity (%) at 212 nm ([4]; EV03, 2,2,2-Trifluoroethanol (TFE) 50.88 mg/mL, solids after 7 days at 25-30° C. and atm. pres.): 88.27% | HPLC purity (%) at 212 nm ([4]; EV04, MeOH:EtOAc (1:1 v/v) 20.49 mg/mL, solids after 4 days at 25-30° C. and atm. pres.): 86.46% | HPLC purity (%) at 212 nm ([4]; EV05, MeOH:Acetone (1:1 v/v) 20.19 mg/mL, solids after 4 days at 25-30° C. and atm. pres.): 90.22% | HPLC purity (%) at 212 nm ([4]; EV06, Water (H2O) 204.39 mg/mL, solids after several hours (overnight) at 50° C. and atm. pres.): 93.24% | HPLC purity (%) at 212 nm [4, 7]: 91.69% | XRPD [4, 7]: S4 + SM, P.O. | HPLC purity (%) at 212 nm ([4]; EV08, MeOH:EtOAc (1:1 v/v) 20.49 mg/mL, solids after several hours (overnight) at 50° C. and atm. pres.): 71.43% | HPLC purity (%) at 212 nm ([4]; EV09, MeOH:Acetone (1:1 v/v) 20.19 mg/mL, solids after 4 days at 50° C. and atm. pres.): 87.00%
SMILES: C[C@H](CCC(=O)[O-])[C@H]1CC[C@H]2[C@@H]3[C@H](O)C[C@@H]4C[C@H](O)CC[C@]4(C)[C@H]3CC[C@]12C.[Na+] [Form B, sodium chenodeoxycholate]
